According to US20060178342A1, “Hyaluronan as a cytotoxic agent, drug pre-sensitizer and chemo-sensitizer in the treatment of disease” (priority 2001, published 2006):
Structures can show the parent of a compound that is named as a salt.

Columns and labels:
HCT-116 = experiment: Drug cytotoxicity assay, Camptosar ± 100 nM hyaluronan; assay type: cell-based; conditions: Homo sapiens, 48 hours continuous exposure, HyCAMP = Camptosar + 100 nM hyaluronan
Description: (§1) Human Colon Carcinoma Cell Lines HT-29, HCT-116, SK-CO-1, SW620, SW1222 were obtained from the Peter MacCallum, Cancer Institute, Melbourne. […] Human colon carcinoma cell lines 1215 and LIM2099 were kindly donated by Dr R Whitehead, Ludwig Institute, Melbourne. […] The various concentrations of Camptosar were achieved by diluting in the appropriate amount of growth media The HCT-116, HT-29, SK-CO-1, LIM1215, LIM2099, SW620 and SW1222 cell lines were routinely grown to 80% confluency. The cells were removed from the culture flask and counted using the haematocytometer. The cells HT-29, HCT-116, SK-CO-1, SW620 and SW1222 were resuspended to 15,000 cells/ml of cell-specific media. The LIM1215 and LIM2099 were resuspended to 30,000 cells/ml of cell-specific media. The cells were plated into 48 well culture plates (1 cm^2 surface area) by adding 1 ml of cell suspension per well. The cells were allowed to attach overnight prior to exposure to the test media. The cells were continuously exposed to the following concentrations of test media: 0 μg/ml, 0.25 μg/ml, 0.5 μg/ml, 1 μg/ml, 5 μg/ml, 25 μg/ml and 50 μg/ml Camptosar±100 nM hyaluronan (Modal Mw 850,000). The cells were continuously incubated with the test media for 48 hours. On the day of analysis, the cells were washed with Hanks Balanced Salt Solution. Subsequently, the cells were removed by trypsinization with 0.25% trypsin/EDTA. An aliquot of the trypsinized cell suspension was counted by the Coulter Counter. The raw duplicate or triplicate counts per well were obtained from the Z2 coulter counter. The counts will be averaged and will be expressed as percentage of no drug control.

HT-29 = experiment: as above; assay type: cell-based; conditions: Homo sapiens, 48 hours continuous exposure, HyCAMP = Camptosar + 100 nM hyaluronan
Description: as §1

LIM 1215 = experiment: as above; assay type: cell-based; conditions: Homo sapiens, LIM1215; 48 hours continuous exposure; HyCAMP = Camptosar + 100 nM hyaluronan
Description: as §1

LIM 2099 = experiment: as above; assay type: cell-based; conditions: Homo sapiens; 48 hours continuous exposure; HyCAMP = Camptosar + 100 nM hyaluronan
Description: as §1

SK-CO-1 = experiment: as above; assay type: cell-based; conditions: Homo sapiens, 48 hours continuous exposure, HyCAMP = Camptosar + 100 nM hyaluronan
Description: as §1

SW 620 = experiment: as above; assay type: cell-based; conditions: Homo sapiens, 48 hours continuous exposure, HyCAMP = Camptosar + 100 nM hyaluronan
Description: as §1

SW1222 = experiment: as above; assay type: cell-based; conditions: Homo sapiens, 48 hours continuous exposure, HyCAMP = Camptosar + 100 nM hyaluronan
Description: as §1

[1] = test system: Human LIM1215 colon cancer xenografts; experiment: 14-week efficacy study, irinotecan ± HA in colon cancer xenografts; assay type: in vivo, mouse; conditions: 50 mg/kg weekly; listed as irinotecan, hydrochloride
Description: Human LIM1215 colon cancer xenografts were inoculated into the mammary fat pad of athymic […] nude mice. Mice were randomly distributed into eight treatment groups (8 mice per group).
The treatment regime comprised of injections on Day 1 of a 7-day cycle for duration of fourteen weeks. Primary tumor volume, animal body mass, energy levels and food consumption were monitored three times weekly.
Athymic CBA/WEHI nude female mice (Walter and Eliza Hall Research Institute, Melbourne, Australia), 6 to 8 weeks old, were maintained under specific pathogen-free conditions, with sterilized food and water available ad libitum. Each mouse received one injection containing 1×10^7 cells in 50-100 μl. […]
Any animals with a tumor volume expressed as a percentage of body weight outside 0.25±0.10 (mean±1 SD) were excluded from data analysis. […]
The experimental end-point for each animal occurred either when the animal had to be euthanized due to a high degree of disease progression or when the 14-week study had been completed. The animals were monitored three times weekly and the following criteria were established to determine whether an animal had reached the experimental end point: tumour mass is greater than 10% of the animals total body mass; the animal is metabolically stressed (i.e. losing weight); or the animal is immobilized.

[2] = 14-week study: treatment toxicity and weight; conditions: 50 mg/kg weekly
[3] = In vivo toxicology, daily iv Camptosar or HyCAMP; conditions: for immediate neurological toxicity, early or late on-set diarrhea: Camptosar or HyCAMP; for LD50: iv
[4] = test system: human breast cancer cells; experiment: Breast cancer cell count assay, cell line not specified or pooled; assay type: cell-based; conditions: Homo sapiens; cell line not stated; read-out: IC50 of adriamycin
Procedure: The cell suspensions were counted with an automated cell counter (ZM-2 Coulter Counter) by adding 15 mL saline+0.2 ml of cell suspension. • Cells were resuspended to a number of: […] The cell suspensions were counted with an automated cell counter (ZM-2 Coulter Counter) by adding 15 mL saline+0.2 ml of cell suspension. Results were expressed as % of no drug control which was calculated as: […]

[5] = substance implied by list of adriamycin groups; cited from earlier work
[6] = 6-week study: treatment toxicity (body mass, blood, organ mass, survival); conditions: 30 mg/kg 5-FU

Compound: CCc1c2c(nc3ccc(OC(=O)N4CCC(N5CCCCC5)CC4)cc13)-c1cc3c(c(=O)n1C2)COC(=O)[C@]3(O)CC [Camptosar, irinotecan hydrochloride]
- IC50 (HCT-116): 1.5 µM
- IC50 (HT-29): 16 µM
- IC50 (LIM 1215): 16 µM
- IC50 (LIM 2099): 31 µM
- IC50 (SK-CO-1): 5 µM
- IC50 (SW 620): 10 µM
- IC50 (SW1222): 32 µM
- population survival to the end of the 14-week study [1]: approximately 57%
- degree of observed weight loss, irinotecan vs HyCAMP groups [2]: comparable
- accumulative dose received without severe adverse effects ([3]; 25 mg/kg daily iv): 350 mg/kg
- body weight lost compared to HyCAMP group ([3]; 25 mg/kg daily iv): 18%
- survival time ([3]; 25 mg/kg daily iv (HyCAMP: + 13.3 mg/kg HA)): 14 days
- immediate neurological toxicity, early or late on-set diarrhea ([3]; 25 mg/kg daily iv): did not exhibit any immediate neurological toxicity, early or late on-set diarrhea
- survival time ([3]; 50 mg/kg daily iv): ≤ 12 days
- immediate neurological toxicity, early or late on-set diarrhea ([3]; 50 mg/kg daily iv): did not exhibit any immediate neurological toxicity, early or late on-set diarrhea
- diarrhea grade ([3]; 100 mg/kg daily iv): 2-3 Grade
- survival time ([3]; 100 mg/kg daily iv): ≤ 7 days
- onset of neurological effects after injection ([3]; 100 mg/kg iv): 30 seconds
- time to fully recuperate from neurological effects ([3]; 100 mg/kg iv): 5 h
- onset of neurological effects after injection ([3]; 150 mg/kg iv): 30 seconds
- recuperation from neurological effects ([3]; 150 mg/kg iv): did not recuperate
- onset of neurological effects after injection ([3]; 200 mg/kg iv): 30 seconds
- recuperation from neurological effects ([3]; 200 mg/kg iv): did not recuperate
- organ mass compared to HyCAMP treatment group ([3]; 50-100 mg/kg): significant increase in the mass of the stomach, lungs, spleen and brain
- LD50 at 14 days ([3]; male, F1 CBAXC57 (out-bred), mouse, in vivo, intravenous): 475 to 550 mg/kg
- LD50 ([3]; male, F1 CBAXC57 (out-bred), mouse, in vivo, 50 mg/kg): 475 mg/kg
- LD50 ([3]; male, F1 CBAXC57 (out-bred), mouse, in vivo, 100 mg/kg): 550 mg/kg
- lethal dose ([3]; single bolus iv): > 100 mg/kg

Compound: COc1cccc2c1C(=O)c1c(O)c3c(c(O)c1C2=O)C[C@@](O)(C(=O)CO)C[C@@H]3O[C@H]1C[C@H](N)[C@H](O)[C@H](C)O1 [adriamycin, doxorubicin, reference compound]
- IC50 [4]: 0.09 µM
- Mouse LD50 [5]: 10 mg/kg

Compound: O=c1[nH]cc(F)c(=O)[nH]1 [5-FU, 5-fluorouracil, reference compound]
- shrinkage of the uterus [6]: 22%
- enlarged spleen, increase in mass ([6]; vs saline group): 61%
